Tests used:
Format in all cases: in vivo
[1] = system: Italian ryegrass (Lolium multiflorum); test: Test B pre-/postemergence plant response
Outline: (§1)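 Visual scoring from 0 (no effect) to 100 (complete control) against untreated controls was done 13 to 15 days after greenhouse treatment. Chemicals were formulated in a surfactant-containing non-phytotoxic solvent and applied to soil preemergence or to 1- to 4-leaf (2-18 cm) plants postemergence.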

[2] = system: Russian thistle (Salsola iberica); test: Test B pre-/postemergence plant response; conditions: Preemergence
Outline: as §1

[3] = system: bermudagrass (Cynodon dactylon); test: Test B pre-/postemergence plant response; conditions: for Bermudagrass plant response rating: 8 g ai/ha
Outline: as §1

[4] = system: cocklebur (Xanthium strumarium); test: Test B pre-/postemergence plant response; conditions: for Cocklebur plant response rating: 8 g ai/ha
Outline: as §1

[5] = system: corn (Zea mays); test: Test B pre-/postemergence plant response
Outline: as §1

[6] = system: downy bromegrass (Bromus tectorum); test: Test B pre-/postemergence plant response; conditions: for Bromegrass, Downy plant response rating: 8 g ai/ha
Outline: as §1

[7] = system: giant foxtail (Setaria faberii); test: Test B pre-/postemergence plant response
Outline: as §1

[8] = system: velvetleaf (Abutilon theophrasti); test: Test B pre-/postemergence plant response
Outline: as §1

[9] = system: woolly cupgrass (Eriochloa villosa); test: Test B pre-/postemergence plant response
Outline: as §1

[10] = system: yellow nutsedge (Cyperus esculentus); test: Test B pre-/postemergence plant response
Outline: as §1

[11] = system: barnyardgrass (Echinochloa crus-galli); test: Test B flooded paddy test plant response
Outline: (§2)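 Paddy-water application to 2-leaf plants in pots held under 3 cm of flooding; response is a 0–100 visual control rating against controls after 13 to 15 days, and a dash marks a missing result.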

[12] = system: ducksalad (Heteranthera limosa); test: Test B flooded paddy test plant response
Outline: as §2

[13] = system: rice (Oryza sativa); test: Test B flooded paddy test plant response
Outline: as §2

[14] = system: umbrella sedge (Cyperus difformis); test: Test B flooded paddy test plant response
Outline: as §2

[15] = 8 g ai/ha, postemergence, 0-100 scale
[16] = Postemergence, 16 g ai/ha, scale 0 to 100
[17] = Postemergence, 31 g ai/ha, scale 0 to 100
[18] = Postemergence, 62 g ai/ha, scale 0 to 100, 0 no effect, 100 complete control
[19] = Preemergence, 31 g ai/ha, scale 0 to 100 (0 no effect, 100 complete control)
[20] = Preemergence, 62 g ai/ha, scale 0 to 100
[21] = Preemergence, 8 g ai/ha, scale 0 to 100
[22] = Preemergence, 16 g ai/ha, scale 0 to 100
[23] = 31 g ai/ha, scale 0 to 100 (0 no effect, 100 complete control)
[24] = Preemergence, scale 0 to 100 (0 no effect, 100 complete control)
[25] = Preemergence, 16 g ai/ha, scale 0 to 100 (0 no effect, 100 complete control)
[26] = Preemergence, 31 g ai/ha, 0 to 100 scale, 0 no effect, 100 complete control
[27] = Preemergence, 62 g ai/ha, 0 to 100 scale, 0 no effect, 100 complete control
[28] = Flood (flooded paddy test), 62 g ai/ha, scale 0 to 100, 0 no effect, 100 complete control
[29] = Flood (flooded paddy test), 250 g ai/ha, scale 0 to 100, 0 no effect, 100 complete control
[30] = Flood (flooded paddy test), 125 g ai/ha, scale 0 to 100, 0 no effect, 100 complete control
[31] = Flood, 31 g ai/ha, scale 0 to 100

## Cc1cc(-c2ccc(Cl)cc2)nn1-c1c(OC(=O)c2cccs2)cnn(C)c1=O [Compound 52]
[1]; [15]
  Ryegrass, Italian plant response rating: 70
[1]; [16]
  Plant response rating, Ryegrass, Italian: 80
[1]; [17]
  Plant response rating, Ryegrass, Italian: 95
[1]; [18]
  Plant response rating, Ryegrass, Italian: 100
[1]; [19]
  Plant response rating, Ryegrass, Italian: 95
[1]; [20]
  Plant response rating, Ryegrass, Italian: 100
[1]; [21]
  Ryegrass, Italian plant response rating: 0
[1]; [22]
  Ryegrass, Italian plant response rating: 95
[2]; [23]
  Plant response rating, Russian Thistle: 0
[2]; 62 g ai/ha, scale 0 to 100
  Plant response rating, Russian Thistle: 0
[2]; 8 g ai/ha, scale 0 to 100
  Russian Thistle plant response rating: 0
[2]; 16 g ai/ha, scale 0 to 100
  Russian Thistle plant response rating: 0
[3]; postemergence, 0-100 scale
  Bermudagrass plant response rating: 40
[3]; [16]
  Plant response rating, Bermudagrass: 98
[3]; [17]
  Plant response rating, Bermudagrass: 100
[3]; [18]
  Plant response rating, Bermudagrass: 100
[3]; [24]
  Bermudagrass plant response rating: 0
[3]; [25]
  Plant response rating, Bermudagrass: 0
[3]; [26]
  Plant response rating, Bermudagrass: 0
[3]; [20]
  Plant response rating, Bermudagrass: 85
[4]; postemergence, 0-100 scale
  Cocklebur plant response rating: 0
[4]; [16]
  Plant response rating, Cocklebur: 0
[4]; [17]
  Plant response rating, Cocklebur: 0
[4]; [18]
  Plant response rating, Cocklebur: 0
[4]; [25]
  Plant response rating, Cocklebur: 0
[4]; [26]
  Plant response rating, Cocklebur: 0
[4]; [20]
  Plant response rating, Cocklebur: 0
[4]; Preemergence, scale 0 to 100
  Cocklebur plant response rating: 0
[5]; [15]
  Corn plant response rating: 85
[5]; [16]
  Plant response rating, Corn: 98
[5]; [17]
  Plant response rating, Corn: 98
[5]; [18]
  Plant response rating, Corn: 98
[5]; [26]
  Plant response rating, Corn: 70
[5]; [20]
  Plant response rating, Corn: 75
[5]; [21]
  Corn plant response rating: 0
[5]; [22]
  Corn plant response rating: 55
[6]; postemergence, 0-100 scale
  Bromegrass, Downy plant response rating: 30
[6]; [16]
  Plant response rating, Bromegrass, Downy: 30
[6]; [17]
  Plant response rating, Bromegrass, Downy: 40
[6]; [18]
  Plant response rating, Bromegrass, Downy: 70
[6]; [25]
  Plant response rating, Bromegrass, Downy: 35
[6]; [26]
  Plant response rating, Bromegrass, Downy: 35
[6]; [20]
  Plant response rating, Bromegrass, Downy: 80
[6]; Preemergence, scale 0 to 100
  Bromegrass, Downy plant response rating: 0
[7]; [15]
  Foxtail, Giant plant response rating: 85
[7]; [16]
  Plant response rating, Foxtail, Giant: 98
[7]; [17]
  Plant response rating, Foxtail, Giant: 100
[7]; [18]
  Plant response rating, Foxtail, Giant: 100
[7]; [26]
  Plant response rating, Foxtail, Giant: 0
[7]; [20]
  Plant response rating, Foxtail, Giant: 98
[7]; [21]
  Foxtail, Giant plant response rating: 0
[7]; [22]
  Foxtail, Giant plant response rating: 0
[8]; [15]
  Velvetleaf plant response rating: 0
[8]; [16]
  Plant response rating, Velvetleaf: 0
[8]; [17]
  Plant response rating, Velvetleaf: 0
[8]; [18]
  Plant response rating, Velvetleaf: 0
[8]; [19]
  Plant response rating, Velvetleaf: 0
[8]; [27]
  Plant response rating, Velvetleaf: 0
[8]; [21]
  Velvetleaf plant response rating: 0
[8]; [22]
  Velvetleaf plant response rating: 0
[9]; [15]
  Cupgrass, Woolly plant response rating: 75
[9]; [16]
  Plant response rating, Cupgrass, Woolly: 90
[9]; [17]
  Plant response rating, Cupgrass, Woolly: 95
[9]; [18]
  Plant response rating, Cupgrass, Woolly: 100
[9]; [26]
  Plant response rating, Cupgrass, Woolly: 0
[9]; [20]
  Plant response rating, Cupgrass, Woolly: 0
[9]; [21]
  Cupgrass, Woolly plant response rating: 0
[9]; [22]
  Cupgrass, Woolly plant response rating: 0
[10]; [15]
  Nutsedge, Yellow plant response rating: 0
[10]; [16]
  Plant response rating, Nutsedge, Yellow: 0
[10]; [17]
  Plant response rating, Nutsedge, Yellow: 0
[10]; [18]
  Plant response rating, Nutsedge, Yellow: 0
[10]; [19]
  Plant response rating, Nutsedge, Yellow: 0
[10]; [20]
  Plant response rating, Nutsedge, Yellow: 0
[10]; [21]
  Nutsedge, Yellow plant response rating: 0
[10]; [22]
  Nutsedge, Yellow plant response rating: 0
[11]; [28]
  Plant response rating, Barnyardgrass: 15
[11]; [29]
  Plant response rating, Barnyardgrass: 75
[12]; [28]
  Plant response rating, Ducksalad: 0
[12]; [29]
  Plant response rating, Ducksalad: 0
[13]; [28]
  Plant response rating, Rice: 10
[13]; [29]
  Plant response rating, Rice: 60
[14]; [28]
  Plant response rating, Sedge, Umbrella: 0
[14]; [29]
  Plant response rating, Sedge, Umbrella: 0

## CCOC(=O)Oc1cnn(C)c(=O)c1-n1nc(-c2ccc(Cl)cc2)cc1C [Compound 53]
[1]; [15]
  Ryegrass, Italian plant response rating: 85
[1]; [16]
  Plant response rating, Ryegrass, Italian: 90
[1]; [17]
  Plant response rating, Ryegrass, Italian: 100
[1]; [18]
  Plant response rating, Ryegrass, Italian: 100
[1]; [19]
  Plant response rating, Ryegrass, Italian: 100
[1]; [20]
  Plant response rating, Ryegrass, Italian: 100
[1]; [21]
  Ryegrass, Italian plant response rating: 80
[1]; [22]
  Ryegrass, Italian plant response rating: 100
[2]; [23]
  Plant response rating, Russian Thistle: 0
[2]; 62 g ai/ha, scale 0 to 100
  Plant response rating, Russian Thistle: 0
[2]; 8 g ai/ha, scale 0 to 100
  Russian Thistle plant response rating: 0
[2]; 16 g ai/ha, scale 0 to 100
  Russian Thistle plant response rating: 0
[3]; postemergence, 0-100 scale
  Bermudagrass plant response rating: 70
[3]; [16]
  Plant response rating, Bermudagrass: 100
[3]; [17]
  Plant response rating, Bermudagrass: 100
[3]; [18]
  Plant response rating, Bermudagrass: 100
[3]; [24]
  Bermudagrass plant response rating: 0
[3]; [25]
  Plant response rating, Bermudagrass: 0
[3]; [26]
  Plant response rating, Bermudagrass: 0
[3]; [20]
  Plant response rating, Bermudagrass: 0
[4]; postemergence, 0-100 scale
  Cocklebur plant response rating: 0
[4]; [16]
  Plant response rating, Cocklebur: 0
[4]; [17]
  Plant response rating, Cocklebur: 0
[4]; [18]
  Plant response rating, Cocklebur: 0
[4]; [25]
  Plant response rating, Cocklebur: 0
[4]; [26]
  Plant response rating, Cocklebur: 0
[4]; [20]
  Plant response rating, Cocklebur: 0
[4]; Preemergence, scale 0 to 100
  Cocklebur plant response rating: 0
[5]; [15]
  Corn plant response rating: 20
[5]; [16]
  Plant response rating, Corn: 100
[5]; [17]
  Plant response rating, Corn: 100
[5]; [18]
  Plant response rating, Corn: 100
[5]; [26]
  Plant response rating, Corn: 55
[5]; [20]
  Plant response rating, Corn: 60
[5]; [21]
  Corn plant response rating: 0
[5]; [22]
  Corn plant response rating: 45
[6]; postemergence, 0-100 scale
  Bromegrass, Downy plant response rating: 10
[6]; [16]
  Plant response rating, Bromegrass, Downy: 45
[6]; [17]
  Plant response rating, Bromegrass, Downy: 60
[6]; [18]
  Plant response rating, Bromegrass, Downy: 90
[6]; [25]
  Plant response rating, Bromegrass, Downy: 50
[6]; [26]
  Plant response rating, Bromegrass, Downy: 70
[6]; [20]
  Plant response rating, Bromegrass, Downy: 90
[6]; Preemergence, scale 0 to 100
  Bromegrass, Downy plant response rating: 10
[7]; [15]
  Foxtail, Giant plant response rating: 85
[7]; [16]
  Plant response rating, Foxtail, Giant: 95
[7]; [17]
  Plant response rating, Foxtail, Giant: 100
[7]; [18]
  Plant response rating, Foxtail, Giant: 100
[7]; [26]
  Plant response rating, Foxtail, Giant: 45
[7]; [20]
  Plant response rating, Foxtail, Giant: 70
[7]; [21]
  Foxtail, Giant plant response rating: 0
[7]; [22]
  Foxtail, Giant plant response rating: 20
[8]; [15]
  Velvetleaf plant response rating: 0
[8]; [16]
  Plant response rating, Velvetleaf: 0
[8]; [17]
  Plant response rating, Velvetleaf: 0
[8]; [18]
  Plant response rating, Velvetleaf: 0
[8]; [19]
  Plant response rating, Velvetleaf: 0
[8]; [27]
  Plant response rating, Velvetleaf: 0
[8]; [21]
  Velvetleaf plant response rating: 0
[8]; [22]
  Velvetleaf plant response rating: 0
[9]; [15]
  Cupgrass, Woolly plant response rating: 85
[9]; [16]
  Plant response rating, Cupgrass, Woolly: 100
[9]; [17]
  Plant response rating, Cupgrass, Woolly: 100
[9]; [18]
  Plant response rating, Cupgrass, Woolly: 100
[9]; [26]
  Plant response rating, Cupgrass, Woolly: 0
[9]; [20]
  Plant response rating, Cupgrass, Woolly: 0
[9]; [21]
  Cupgrass, Woolly plant response rating: 0
[9]; [22]
  Cupgrass, Woolly plant response rating: 0
[10]; [15]
  Nutsedge, Yellow plant response rating: 0
[10]; [16]
  Plant response rating, Nutsedge, Yellow: 0
[10]; [17]
  Plant response rating, Nutsedge, Yellow: 0
[10]; [18]
  Plant response rating, Nutsedge, Yellow: 0
[10]; [19]
  Plant response rating, Nutsedge, Yellow: 0
[10]; [20]
  Plant response rating, Nutsedge, Yellow: 0
[10]; [21]
  Nutsedge, Yellow plant response rating: 0
[10]; [22]
  Nutsedge, Yellow plant response rating: 0
[11]; [28]
  Plant response rating, Barnyardgrass: 0
[11]; [30]
  Plant response rating, Barnyardgrass: 0
[11]; [29]
  Plant response rating, Barnyardgrass: 40
[11]; [31]
  Plant response rating, Barnyardgrass: 0
[12]; [28]
  Plant response rating, Ducksalad: 0
[12]; [30]
  Plant response rating, Ducksalad: 50
[12]; [29]
  Plant response rating, Ducksalad: 50
[12]; [31]
  Plant response rating, Ducksalad: 0
[13]; [28]
  Plant response rating, Rice: 0
[13]; [30]
  Plant response rating, Rice: 0
[13]; [29]
  Plant response rating, Rice: 30
[13]; [31]
  Plant response rating, Rice: 0
[14]; [28]
  Plant response rating, Sedge, Umbrella: 0
[14]; [30]
  Plant response rating, Sedge, Umbrella: 40
[14]; [29]
  Plant response rating, Sedge, Umbrella: 70
[14]; [31]
  Plant response rating, Sedge, Umbrella: 0
